Measurements published in patent publication US7268160B2, “Remedies” (Takara Bio, Inc., priority 2000, dated 2007).

Assays:
[1] = test system: NGF production in the L-M cells; assay: Enhancing activity for NGF production, Reference Example 1 method (24 hours culture, NGF enzyme immunoassay of culture medium); assay type: cell-based, murine; details: for Enhancement Ratio (%): negative control = 100%
Method: L-M cells (ATCC CCL-1.2) from murine fibroblasts were suspended in an M199 medium (manufactured by ICN) containing 0.5% bactopeptone (manufactured by Gibco BRL) so as to have a concentration of 1.5×10^5 cells/mi. The suspension was put in a 96-well plate in an amount of 0.1 ml each well, and the cells were aseptically cultured. After culturing the cells for 3 days, the medium was removed therefrom, and exchanged with an M199 medium containing 0.5% bovine serum albumin (manufactured by Sigma). Caffeic acid (manufactured by Sigma, dimethyl suif oxide (DMSO) solution), a substance known to have enhancing activity for NGF production, was added to each well containing the cells, so as to have a final concentration of 0, 50, 100 or 200 μM, and the cells were cultured for 24 hours. One having a caffeic acid concentration of 0 μM was used as a negative control. In addition, the final concentration of DM50 in each well was adjusted to 0.1%. After the termination of the culture, the NGF concentration in the culture medium was determined by an enzyme immunoassay method (NGF Emax Immuno Assay System, manufactured by Promega). The degree of the enhancement for NGF production of caffeic acid at each added amount was expressed in percentage as the enhancement ratio (%) on the basis of the NGF concentration in the cell culture medium at each added amount, when the NGF concentration in the cell culture medium of the negative control was defined as 100%. The experiment was carried out twice, and an average value was taken. It was shown that the enhancing activity for NGF production of caffeic acid could be assayed by this method.
The enhancing activity for NGF production of the compound (13) (manufactured by Funakoshi) was assayed in the same manner as in Reference Example 1. The compound (13) was added so as to have a final concentration of 0, 0.5, 1, 2, 5, 10, 20 or 50 μM.
The enhancing activity for NGF production of a compound (14) (manufactured by Sigma) was assayed in the same manner as in Reference Example 1. The compound (14) was added so as to have a final concentration of 0, 50, 100 or 200 μM.
The enhancing activity for NGF production of a compound (15) (manufactured by Sigma) was assayed in the same manner as in Reference Example 1. The compound (15) was added so as to have a final concentration of 0, 12.5, 25 or 50 μM.
The enhancing activity for NGF production of a compound (16) (manufactured by Wako Pure Chemical Industries) was assayed in the same manner as in Reference Example 1. The compound (16) was added so as to have a final concentration of 0, 25, 50 or 100 μM.

NGF = assay: Content of NGF in sciatic nerves of streptozotocin-induced diabetic rats; assay type: in vivo, SD rats; details: 4 weeks
Method: Male SD rats were purchased from Nippon SLC, and used for an experiment at 5 weeks old after preliminary rearing. Streptozotocin (manufactured by Nakalai Tesque) was administered intraperitoneally to the rats at a dose of 100 mg/kg body weight to induce diabetes. The rats were divided into groups according to the blood sugar level after 5 days from the administration of streptozotocin. Next, a solution prepared by dissolving butein [compound (13)] in physiological saline was administered intraperitoneally to the rats at a dose of 100 μg per 1 kg body weight. In the control group, physiological saline alone was administered in the same manner. The rats were administered for consecutive days, and sciatic nerves (about 35 mg) were enucleated after 4 weeks from the beginning of administration. The enucleated sciatic nerves were homogenized, and NGF was extracted. The content of NGF was assayed by an enzyme immunoassay method (NGF Emax Immuno Assay System, manufactured by Promega).
The numerical figures in the table are expressed by an average value±standard error of 6 cases. In addition, the asterisk * means that the group has a significant difference at a significance level of 5% or less as compared to the control group according to Student-t test. […] As described above, it was clarified that the NGF production was enhanced by the administration of butein to a living body.

SD rats = assay: Toxicity test in rats (Test Example 1); assay type: in vivo; details: male SD rats
Method: Male SD rats were purchased from Nippon SLC, and used for an experiment from 6 week-old after preliminary rearing. A solution prepared by dissolving butein [compound (13)] in physiological saline was administered intraperitoneally, or a suspension prepared by suspending butein in 0.5% carboxymethylcellulose was given by forced oral administration, to the rats. The concentration of administration was 300 mg (N=3), 10 mg (N=3), 1 mg (N=3) or 0.1 mg (N=3) per 1 kg body weight in the case of intraperitoneal administration, and 1 g (N=2) and 0.1 g (N=3) per 1 kg body weight in the case of forced oral administration. In the control group, each of the solvents alone was administered in the same manner.

CDF1 mice = assay: Toxicity on oral administration to mice; assay type: in vivo; details: oral administration to a mouse once at 1000 mg/kg
From the text: Each of the compounds used in Example 16 was orally administered to mice in the same manner as in Test Example 1 described above.

[2] = test system: NGF production in the L-M cells; assay: Enhancement for NGF production by flavonols, Example 16 (24 hours culture); assay type: cell-based, rat; details: for Enhancement of NGF production (in words): L-M cells; for Enhancement Ratio (%): negative control (distilled water) = 100%
Method: L-M cells (ATCC CCL-1.2) from […] fibroblasts were suspended in an M199 medium (manufactured by ICN) containing 0.5% bactopeptone (manufactured by Gibco BRL) so as to have a concentration of 1.5×10^5 cells/ml. The suspension was put in a 96-well plate in an amount of 0.1 ml each well, and the cells were aseptically cultured. After culturing the cells for 3 days, the medium was removed therefrom, and exchanged with an M199 medium containing 0.5% bovine serum albumin (manufactured by Sigma).
As the negative control, that with addition of distilled water was used. After the termination of the culture, the NGF concentration in the culture medium was assayed by an enzyme immunoassay method (NGF Emax Immuno Assay System, manufactured by Promega). The degree of the enhancement for NGF production at each added amount was expressed in percentage as the enhancement ratio (%) on the basis of the NGF concentration in the cell culture medium at each added amount when the NGF concentration in the cell culture medium of the negative control was defined as 100%. The experiment was carried out twice, and an average value was taken.
The enhancing activity for NGF production of myricitrin (manufactured by Funakoshi) was assayed in the same manner as in item (1) of Example 16. Myricitrin was added so as to have a final concentration of 0, 31.3, 62.5, 125 or 250 μM.
The enhancing activity for NGF production of quercitrin (manufactured by Sigma) was assayed in the same manner as in item (1) of Example 16. Quercitrin was added so as to have a final concentration of 0, 31.3, 62.5, 125 or 250 μM.

Compound	Enhancement of NGF production (in words) [2]	Enhancement Ratio (%) ([2]; added amount 31.3 μM)	Enhancement Ratio (%) ([2]; added amount 62.5 μM)	Enhancement Ratio (%) ([2]; added amount 125 μM)	Enhancement Ratio (%) ([2]; added amount 250 μM)	other results
O=C(/C=C/c1ccc(O)c(O)c1)c1ccc(O)cc1O [Compound (13), Butein]	–	–	–	–	–	Enhancement of NGF production (in words) ([1]; L-M cells): enhanced NGF production in the L-M cells in a concentration-dependent manner; Enhancement Ratio (%) ([1]; added amount 0.5 μM): 120%; Enhancement Ratio (%) ([1]; added amount 1 μM): 462%; Enhancement Ratio (%) ([1]; added amount 2 μM): 1107%; Enhancement Ratio (%) ([1]; added amount 5 μM): 2100%; Enhancement Ratio (%) ([1]; added amount 10 μM): 3686%; Enhancement Ratio (%) ([1]; added amount 20 μM): 3927%; Enhancement Ratio (%) ([1]; added amount 50 μM): 1743%; Content of NGF (pg/Sciatic Nerves) (NGF; 100 μg per 1 kg body weight intraperitoneally, consecutive days, streptozotocin diabetic rats, average ± standard error, N = 6, * significant at 5% vs control (119.2 ± 11.7)): 187.7 ± 26.4* pg/Sciatic Nerves; Content of NGF in the nerves vs control group (in words) (NGF; 100 μg per 1 kg intraperitoneally, diabetic rats): content of NGF in the nerves was increased; Toxicity findings (death, general conditions, body weight, dissection) (SD rats; forced oral administration, 1 g and 0.1 g per 1 kg body weight): no cases of death, changes in the general conditions, suppression of the increase in the body weight or abnormal findings at the dissection were found; Toxicity findings (death, general conditions, body weight, dissection) (SD rats; intraperitoneal administration, 300 mg, 10 mg, 1 mg or 0.1 mg per 1 kg body weight): no cases of death, changes in the general conditions, suppression of the increase in the body weight or abnormal findings at the dissection were found; Cases of death (CDF1 mice): no cases of death
O=c1c(O)c(-c2cc(O)c(O)c(O)c2)oc2cc(O)cc(O)c12 [Myricetin, myricetin]	enhanced NGF production in the L-M cells in a concentration-dependent manner	–	–	–	–	–
C[C@H]1O[C@@H](Oc2c(-c3cc(O)c(O)c(O)c3)oc3cc(O)cc(O)c3c2=O)[C@@H](O)[C@@H](O)[C@@H]1O [Myricitrin, myricitrin]	enhanced NGF production in the L-M cells in a concentration-dependent manner	105%	159%	294%	304%	–
O=c1c(O)c(-c2ccc(O)c(O)c2)oc2cc(O)cc(O)c12 [Quercetin, quercetin]	enhanced NGF production in the L-M cells in a concentration-dependent manner	122%	108%	–	219%	–
C[C@@H]1O[C@@H](Oc2c(-c3ccc(O)c(O)c3)oc3cc(O)cc(O)c3c2=O)[C@H](O)[C@H](O)[C@H]1O [Quercitrin, quercitrin]	enhanced NGF production in the L-M cells in a concentration-dependent manner	122%	140%	193%	207%	–
